Source: patent US11173145B2, “Compounds useful as inhibitors of indoleamine 2,3-dioxygenase and/or tryptophan dioxygenase” (Board of Regents, The University of Texas System, priority 2017, dated 2021)
pIC50: −log10 of the molar value.

Molecular target: T1, IDO1 (Homo sapiens, UniProt P14902)
T1 construct: endogenous in cells; host or cells: HeLa cells (ATCC), IFNgamma-induced
Test: IDO1 cell-based assay (HeLa cells, IFNgamma-induced, N-formylkynurenine/L-tryptophan by RFMS)
Conditions: 10 ng/mL IFNgamma, 24 hours
Summary of the method: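 HeLa cells stimulated with 10 ng/mL IFNgamma and exposed to compound (0.5% DMSO final) for 24 h at 37 °C. Conditioned media deproteinized, then N-formylkynurenine and L-tryptophan quantified by RapidFire MS with deuterated tryptophan internal standard; IC50 by curve fitting. Viability checked by CellTiter-Glo.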

T1 sequence (P14902 whole entry): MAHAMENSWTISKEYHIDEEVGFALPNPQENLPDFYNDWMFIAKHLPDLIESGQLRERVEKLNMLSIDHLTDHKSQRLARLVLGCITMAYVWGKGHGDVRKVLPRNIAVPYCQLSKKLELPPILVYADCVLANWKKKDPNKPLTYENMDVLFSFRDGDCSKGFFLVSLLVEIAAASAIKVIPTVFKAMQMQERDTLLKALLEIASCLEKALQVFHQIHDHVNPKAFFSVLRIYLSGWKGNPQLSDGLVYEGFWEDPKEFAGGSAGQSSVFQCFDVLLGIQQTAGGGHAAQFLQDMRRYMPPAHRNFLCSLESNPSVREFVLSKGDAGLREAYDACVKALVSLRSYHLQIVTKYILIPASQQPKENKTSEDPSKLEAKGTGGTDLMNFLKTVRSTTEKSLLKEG

In the case of CC[C@@H](NC(=O)c1ccc(Cl)cc1)[C@H]1[C@@H]2C[C@@H](NC(=O)c3ncccc3F)C[C@@H]21 [Compound 327, N-((1R,3S,5S,6r)-6-((R)-1-(4-chlorobenzamido)propyl)bicyclo[3.1.0]hexan-3-yl)-3-fluoropicolinamide], the pIC50 was > 6.70.
For CC[C@@H](NC(=O)c1ccc(C#N)cc1)[C@H]1[C@@H]2C[C@@H](n3c(C)nc4ccc(Cl)cc43)C[C@@H]21 [Compound 294, N-((R)-1-((1R,3S,5S,6r)-3-(6-chloro-2-methyl-1H-benzo[d]imidazol-1-yl)bicyclo[3.1.0]hexan-6-yl)propyl)-4-cyanobenzamide], the pIC50 was > 6.70.
For CCC(NC(=O)c1ccc(C#N)cc1)[C@H]1[C@@H]2C[C@@H](Oc3cnnc4ccccc34)C[C@@H]21 (stereo partly drawn) [Compound 80, N-(1-((1R,3s,5S,6r)-3-(cinnolin-4-yloxy)bicyclo[3.1.0]hexan-6-yl)propyl)-4-cyanobenzamide], the pIC50 was > 6.70.
For CCC(NC(=O)c1ccc(Cl)cc1)[C@H]1[C@@H]2C[C@@H](n3cc(C(=O)N4CCCC4)nn3)C[C@@H]21 (stereo partly drawn) [Compound 98, 4-chloro-N-(1-((1R,3s,5S,6r)-3-(4-(pyrrolidine-1-carbonyl)-1H-1,2,3-triazol-1-yl)bicyclo[3.1.0]hexan-6-yl)propyl)benzamide], the pIC50 was > 6.70.
For CC(C(=O)Nc1ccc(Cl)cc1)[C@H]1[C@@H]2C[C@@H](Oc3ccnc4ccc(F)cc34)C[C@@H]21 (stereo partly drawn) [Compound 347, N-(4-chlorophenyl)-2-((1R,3s,5S,6r)-3-((6-fluoroquinolin-4-yl)oxy)bicyclo[3.1.0]hexan-6-yl)propanamide], the pIC50 was > 6.70.
In the case of N#Cc1ccc(C(=O)NC[C@@H]2[C@H]3C[C@H](n4cnc5cc(F)c(F)cc54)C[C@@H]23)cc1 [Compound 302, 4-cyano-N-(((1R,3s,5S,6r)-3-(5,6-difluoro-1H-benzo[d]imidazol-1-yl)bicyclo[3.1.0]hexan-6-yl)methyl)benzamide], the pIC50 was > 6.70.
CCC(NC(=O)c1ccc(Cl)cc1)[C@H]1[C@@H]2C[C@@H](Nc3ncnc4ccc(F)cc34)C[C@@H]21 (stereo partly drawn) [Compound 123, 4-chloro-N-(1-((1R,3s,5S,6r)-3-((6-fluoroquinazolin-4-yl)amino)bicyclo[3.1.0]hexan-6-yl)propyl)benzamide] was tested, and the pIC50 was > 6.70.
With COc1ccc(C(=O)NC(C)[C@H]2[C@@H]3C[C@@H](O)C[C@@H]32)cn1 (stereo partly drawn) [Compound 128, N-(1-((1R,3s,5S,6r)-3-hydroxybicyclo[3.1.0]hexan-6-yl)ethyl)-6-methoxynicotinamide] the pIC50 was < 5.30.
A pIC50 of 5.70 to 6.70 was found for CCC(NC(=O)c1ccc(Cl)cc1)[C@H]1[C@@H]2C[C@@H](O)C[C@@H]21 (single isomer, unassigned) [Compound 3] in this work.
C#Cc1ccc2ncnc(N[C@@H]3C[C@@H]4[C@H](C3)[C@H]4[C@@H](CC)NC(=O)c3ccc(Cl)cc3)c2c1 [Compound 337, 4-chloro-N-((R)-1-((1R,3S,5S,6r)-3-((6-ethynylquinazolin-4-yl)amino)bicyclo[3.1.0]hexan-6-yl)propyl)benzamide] was tested, and the pIC50 was > 6.70.
A pIC50 of 5.70 to 6.70 was found for CCC(NC(=O)c1ccc(C#N)cn1)[C@H]1[C@@H]2C[C@@H](n3ncc(=O)c4ccccc43)C[C@@H]21 (stereo partly drawn) [Compound 83, 5-cyano-N-(1-((1R,3s,5S,6r)-3-(4-oxocinnolin-1(4H)-yl)bicyclo[3.1.0]hexan-6-yl)propyl)picolinamide] in this work.
A pIC50 of 5.70 to 6.70 was found for CCC(NC(=O)c1ccc(Cl)cc1)[C@H]1[C@@H]2C[C@@H](NC(=O)N3CCOCC3)C[C@@H]21 (stereo partly drawn) [Compound 157, N-((1R,3s,5S,6r)-6-(1-(4-chlorobenzamido)propyl)bicyclo[3.1.0]hexan-3-yl)morpholine-4-carboxamide] in this work.
A pIC50 of 5.70 to 6.70 was found for O=C(Nc1ccc(Cl)cc1)N[C@H]1[C@@H]2C[C@H](Oc3ccnc4ccc(F)cc34)C[C@@H]21 [Compound 29, 1-(4-chlorophenyl)-3-((1R,3r,5S,6r)-3-((6-fluoroquinolin-4-yl)oxy)bicyclo[3.1.0]hexan-6-yl)urea] in this work.
CCC(NC(=O)c1ccc(Cl)cc1)C1C2CC(Oc3nncc4ccccc34)CC21 [Compound 72, 4-chloro-N-(1-((1R,3s,5S,6r)-3-(phthalazin-1-yloxy)bicyclo[3.1.0]hexan-6-yl)propyl)benzamide] was tested, and the pIC50 was > 6.70.
A pIC50 of 5.70 to 6.70 was found for O=C(Cc1ccc(Cl)cc1)NC1[C@H]2CC(Oc3cnnc4ccccc34)C[C@@H]12 (stereo partly drawn) [Compound 79, 2-(4-chlorophenyl)-N-((1R,3s,5S,6r)-3-(cinnolin-4-yloxy)bicyclo[3.1.0]hexan-6-yl)acetamide] in this work.
With CC[C@@H](NC(=O)c1cccc(F)c1)[C@H]1[C@@H]2C[C@@H](n3cnc4cc(F)c(F)cc43)C[C@@H]21 [Compound 312, N-((R)-1-((1R,3S,5S,6r)-3-(5,6-difluoro-1H-benzo[d]imidazol-1-yl)bicyclo[3.1.0]hexan-6-yl)propyl)-3-fluorobenzamide] the pIC50 was > 6.70.
For CC[C@@H](NC(=O)c1ccc(C#N)cc1)[C@H]1[C@@H]2C[C@@H](c3ccnc4ccc(F)cc34)C[C@@H]21 [Compound 277, 4-cyano-N-((R)-1-((1R,3S,5S,6r)-3-(6-fluoroquinolin-4-yl)bicyclo[3.1.0]hexan-6-yl)propyl)benzamide], the pIC50 was > 6.70.
In the case of O=C(Cc1ccc(Cl)cc1)NC1[C@H]2C[C@H](Oc3ccnc4ccc(F)cc34)C[C@@H]12 (stereo partly drawn) [Compound 7, 2-(4-chlorophenyl)-N-((1R,3s,5S,6r)-3-((6-fluoroquinolin-4-yl)oxy)bicyclo[3.1.0]hexan-6-yl)acetamide], the pIC50 was > 6.70.
With CCC(NC(=O)c1ccc(Cl)cc1)[C@H]1[C@@H]2C[C@@H](NC(=O)c3ccc4ccccc4n3)C[C@@H]21 (stereo partly drawn) [Compound 118, N-((1R,3s,5S,6r)-6-(1-(4-chlorobenzamido)propyl)bicyclo[3.1.0]hexan-3-yl)quinoline-2-carboxamide] the pIC50 was > 6.70.
With O=C(NCc1ccc(Cl)cc1)C1[C@H]2CC(Oc3ccnc4ccccc34)C[C@@H]12 (stereo partly drawn) [Compound 16, (1R,5S)-N-(4-chlorobenzyl)-3-(quinolin-4-yloxy)bicyclo[3.1.0]hexane-6-carboxamide] the pIC50 was < 5.30.
CC(C(=O)Nc1ccc(Cl)c(F)c1)[C@H]1[C@@H]2C[C@@H](n3cnc4cc(F)c(F)cc43)C[C@@H]21 (stereo partly drawn) [Compound 345, N-(4-chloro-3-fluorophenyl)-2-((1R,3s,5S,6r)-3-(5,6-difluoro-1H-benzo[d]imidazol-1-yl)bicyclo[3.1.0]hexan-6-yl)propanamide] was tested, and the pIC50 was > 6.70.
In the case of CCC(NC(=O)c1ccc2c(c1)OC(F)(F)O2)C1C2CC(Oc3ncnc4ccc(F)cc34)CC21 [Compound 69, 2,2-difluoro-N-(1-((1R,3s,5S,6r)-3-((6-fluoroquinazolin-4-yl)oxy)bicyclo[3.1.0]hexan-6-yl)propyl)benzo[d][1,3]dioxole-5-carboxamide], the pIC50 was > 6.70.
For CCC(NC(=O)c1ccc(Cl)cc1)[C@H]1[C@@H]2C[C@@H](n3cc(C(=O)O)nn3)C[C@@H]21 (stereo partly drawn) [Compound 94, 1-((1R,3s,5S,6r)-6-(1-(4-chlorobenzamido)propyl)bicyclo[3.1.0]hexan-3-yl)-1H-1,2,3-triazole-4-carboxylic acid], the pIC50 was < 5.30.
In the case of O=C(NC[C@@H]1[C@H]2C[C@H](n3cnc4cc(F)c(F)cc43)C[C@@H]12)c1ccc(F)cc1 [Compound 314, N-(((1R,3s,5S,6r)-3-(5,6-difluoro-1H-benzo[d]imidazol-1-yl)bicyclo[3.1.0]hexan-6-yl)methyl)-4-fluorobenzamide], the pIC50 was > 6.70.
O=C(O)CC(NC(=O)c1ccc(Cl)cc1)[C@H]1[C@@H]2C[C@@H](Oc3ncnc4ccc(F)cc34)C[C@@H]21 (stereo partly drawn) [Compound 148, 3-(4-chlorobenzamido)-3-((1R,3s,5S,6r)-3-((6-fluoroquinazolin-4-yl)oxy)bicyclo[3.1.0]hexan-6-yl)propanoic acid] was tested, and the pIC50 was < 5.30.
A pIC50 of 5.70 to 6.70 was found for CCC(NC(=O)c1ccc(Cl)cc1)[C@H]1[C@@H]2C[C@@H](n3nncc3CO)C[C@@H]21 (stereo partly drawn) [Compound 155, 4-chloro-N-(1-((1R,3s,5S,6r)-3-(5-(hydroxymethyl)-1H-1,2,3-triazol-1-yl)bicyclo[3.1.0]hexan-6-yl)propyl)benzamide] in this work.
CCC(NC(=O)c1ccc(Cl)cc1)[C@H]1[C@@H]2C[C@@H](Oc3nc(C)ncc3F)C[C@@H]21 (stereo partly drawn) [Compound 52, 4-chloro-N-(1-((1R,3s,5S,6r)-3-((5-fluoro-2-methylpyrimidin-4-yl)oxy)bicyclo[3.1.0]hexan-6-yl)propyl)benzamide] was tested, and the pIC50 was > 6.70.
In the case of CC[C@@H](NC(=O)c1ccc(C)nc1)[C@H]1[C@@H]2C[C@@H](n3cnc4cc(F)c(F)cc43)C[C@@H]21 [Compound 311, N-((R)-1-((1R,3S,5S,6r)-3-(5,6-difluoro-1H-benzo[d]imidazol-1-yl)bicyclo[3.1.0]hexan-6-yl)propyl)-6-methylnicotinamide], the pIC50 was > 6.70.
A pIC50 of 5.70 to 6.70 was found for CCC(NC(=O)c1ccc(Cl)cc1)[C@H]1[C@@H]2C[C@@H](N3C(=O)C(=O)c4ccccc43)C[C@@H]21 (stereo partly drawn) [Compound 114, 4-chloro-N-(1-((1R,3s,5S,6r)-3-(2,3-dioxoindolin-1-yl)bicyclo[3.1.0]hexan-6-yl)propyl)benzamide] in this work.
For CCC(NC(=O)c1ccc(Cl)cc1)[C@H]1[C@@H]2C[C@@H](n3nncc3C(C)(C)O)C[C@@H]21 (stereo partly drawn) [Compound 154, 4-chloro-N-(1-((1R,3s,5S,6r)-3-(5-(2-hydroxypropan-2-yl)-1H-1,2,3-triazol-1-yl)bicyclo[3.1.0]hexan-6-yl)propyl)benzamide], the pIC50 was > 6.70.
With O=C(Cc1ccc(Cl)cc1)NC1C2CN(c3ccnc4ccc(F)cc34)CC21 (centres unmarked) [Compound 109, 2-(4-Chlorophenyl)-N-(3-(6-fluoroquinolin-4-yl)-3-azabicyclo[3.1.0]hexan-6-yl)acetamide] the pIC50 was < 5.30.
A pIC50 of 5.30 to 5.70 was found for O=C(Cc1ccc(Cl)cc1)N[C@H]1[C@@H]2C[C@@H](n3cnc4ccc(F)cc4c3=O)C[C@@H]21 [Compound 62, 2-(4-chlorophenyl)-N-((1R,3s,5S,6r)-3-(6-fluoro-4-oxoquinazolin-3(4H)-yl)bicyclo[3.1.0]hexan-6-yl)acetamide] in this work.
